For 89 molecules, melting point results are on record in a melting point compilation (Tetko et al.; mined from patent text by program, amines drawn as free bases though some values may be those of a salt).

A word on the melting point: it is the temperature of the solid-liquid transition. `CC1(C)C(=O)N(CCN2CCc3c([nH]c4ccccc34)C2)c2ccccc21` showed a melting point of 156 to 158 °C.
Take `O=C(Nc1ncc(C(F)(F)F)o1)C1c2ccc(F)cc2Oc2cc(F)ccc21`: the melting point was 249 °C.
`N=C(N)Nc1c(Cl)cccc1Cl` displayed a melting point of 213 °C.
`CCOC(=O)c1cnn2c1c(NC(C)CC)nc1ccccc12` (centres undefined) showed a melting point of 82 to 84 °C.
On to `Cc1cc(F)ccc1-c1c(O)c(C)c(-c2ccccn2)oc1=O`, for which the melting point lay within 123 to 125 °C.
For `COC(=O)C(Cl)Cc1ccc(O)cc1` (centres undefined) the value was 57 to 59 °C; for `CCCc1nc2c(ccc3cc(C(=O)N4CCC(Cc5ccccc5)CC4)[nH]c32)o1`, 195 to 196 °C; for `N#Cc1nn(-c2c(Cl)cc(C(F)(F)F)cc2Cl)c(N)c1-c1cccc2ccccc12`, 208 °C.
Turning to `O=C1CCNc2nc(Br)ccc21`, the melting point lay in the range of 196 to 197 °C.
As to `C=CCC12CC(c3ccccc31)c1ccccc12`, the melting point is 42 to 43 °C.
Molecule `O=[N+]([O-])c1cn2c(n1)O[C@@H](COc1ccc(N3CCC(Cc4ccc(OC(F)(F)F)cc4)CC3)cc1)C2` gave a melting point of 160 to 164 °C.
Regarding `Cc1oc(-c2ccccc2)nc1C(=O)COc1ccc(CCC2OCCO2)cc1`, the melting point was 119 to 120 °C.
For `Cc1c(Cl)ccc(N(C)C(=O)CN2C(=O)c3ccccc3C2=O)c1Cl` the value was 193 to 194 °C.
In turn, `COc1ccc(CCc2ccncc2)c2cc(C#N)nn12` came in with a melting point of 191 to 192 °C.
`CCC(O)(c1ccccc1)c1cc(OC)c(OC)c(OC)c1` (centres undefined) showed a melting point of 123 to 124 °C.
In the case of `COC12CC(C)(C)C(O1)C(O)C=C2C` (centres undefined), the melting point is 52 to 54 °C.
For the molecule `O=C(O)c1cc(S(=O)CC(=O)c2ccccc2)cc(C(F)(F)F)c1` (centres undefined), the melting point lay within 148 to 151 °C.
`CN(C)c1ccc(C2CC3(C)C(O)CC(O)C3C3CCC4CC5(CCC4=C23)OCCO5)cc1` (centres undefined): the melting point was in the range of 107 to 109 °C.
For `COC(=O)CCCc1cc2nc(C(F)(F)F)ccc2[nH]1` the value was 137 °C; for `COc1ccc(NC(=O)c2ccccc2Cl)cc1`, 113 to 115 °C; for `CCOCc1nc2c(N)nc3ccccc3c2n1CC1(C(N)=O)CC1`, 230 to 232 °C.
Molecule `CCCCN(CCCC)C(=O)C1=NN(c2ccccc2)C(C(N)=O)=NN1c1ccccc1` yielded a melting point of 160 to 161 °C.
In turn, `O=C(NC12CC3CC(CC(C3)C1)C2)OCc1cccs1` displayed a melting point of 66 to 68 °C.
Molecule `CC(=O)c1cc(-c2ccc(C(C)(C)C)cc2)c2c(c1)C(C)(C)CCC2(C)C` gave a melting point of 134 °C.
The value for `COc1cc(C=S2C=CN=C2N)c([N+](=O)[O-])cc1OC` (centres undefined) was 125 to 130 °C; that for `Cc1ccnc(C(C#N)Sc2nc(N)cc(Cl)n2)c1` (centres undefined) was 145 to 146 °C.
Molecule `O=C(NCCc1cccc2ccc(OC3CCCCC3)cc12)C1CC1` showed a melting point of 153 to 155 °C.
The value for `COc1cc(CNC(=O)c2nc3cnn(CCCc4ccccc4)c3c(=O)[nH]2)ccc1F` was 155 to 157 °C; that for `O=C(O)c1conc1-c1ccc(F)cc1` was 170 to 174 °C; that for `Cc1c(OCC#N)cc2c(c1Cl)C(=O)C1(CCCC1)C2=O` was 137 to 139 °C.
As to `COc1cc(Nc2c(C#N)cnc3cc(-c4ccc(CN5CCC(O)CC5)s4)ccc23)c(Cl)cc1Cl`, the melting point fell in the range of 120 to 123 °C.
`CCOP(=O)(OCC)C(CNc1nc(C)cc(Oc2ccc(Cl)cc2Cl)n1)P(=O)(OCC)OCC` gave a melting point of 76 to 77 °C.
As for `CC(C)(C)NC(=O)[C@@H]1CCCN1C(=O)[C@@H](O)[C@H](Cc1ccccc1)NC(=O)[C@H](CC(N)=O)NC(=O)COc1ccc(NC(=O)OCc2ccccc2)cc1`, the melting point lay within 103 to 105 °C.
The value for `C=C(C(=O)c1ccc(Cl)cc1)c1ccccc1` was 42 °C; that for `CC(C)(C)OC(=O)C[C@@H](CC1CCCC1)C(=O)O` was 86.5 to 88 °C; that for `CCCOC(C)Cc1ccc(-c2ccc(O)cc2)cc1` (single isomer, unassigned; (-)) was 52 to 54 °C.
Molecule `COC(=O)C1CN(Cc2cccnc2)C(=O)C(=C2SC=CS2)C1=O` (centres undefined) displayed a melting point of 111 to 114 °C.
In turn, `CN1CC(CO)C=C2c3cccc4c3c(cn4C)CC21` (centres undefined) returned a melting point of 216 to 217 °C.
Molecule `COC(=O)c1cc(S(C)(=O)=O)c(F)cc1Br` displayed a melting point of 126 °C.
`Cc1cc(OC(F)F)cc(NC(=O)NS(=O)(=O)c2ccccc2Cl)n1` came in with a melting point of 169 to 170 °C.
In the case of `CN1CCN(c2nn(C(=O)c3ccccc3)c3ccc(Cl)cc23)CC1`, the melting point was in the range of 105 to 107 °C.
Take `COc1ccc2c(c1)CN(C(=O)NO)N=C2Cc1c(Cl)cncc1Cl`: the melting point lay within 155 to 158 °C.
The value for `CN1C(=O)c2cccnc2Nc2cc(C(F)(F)F)ccc21` was 169 to 172 °C; that for `CCCN(c1cccc(-c2ccnc3c([N+](=O)[O-])cnn23)c1)S(C)(=O)=O` was 165 to 167 °C.
The molecule `[N-]=[N+]=C(c1ccccc1)c1ccc(COCCNC(=O)Nc2ccccc2)cc1` displayed a melting point of 111 to 115 °C.
In turn, `CCCCS(=O)(=O)C1(CCCCN2CCC(N3Cc4ccccc4C3=O)CC2)c2ccccc2-c2ccccc21` displayed a melting point of 130 to 132 °C.
For `O=C(Nc1cccc(C(F)(F)F)c1)c1cccnc1NCc1cccc(O)c1` the value was 143 to 146 °C; for `CCC(=O)Nc1c(C(=O)c2cc(Cl)ccc2[N+](=O)[O-])[nH]c2cc(Cl)ccc12`, 245 to 246 °C.
The value for `CC(=O)NCC=C1CCc2ccc3nc(C)oc3c21` was 188 to 190 °C.
In turn, `CC1(C)C(=O)Nc2cc(-c3nc4ccc(Cl)cc4[nH]3)ccc21` registered a melting point of 287 to 289 °C.
With `CC(O)(c1nc2ccccc2[nH]1)C(F)(F)F` (centres undefined), the melting point lay in the range of 184 to 187 °C.
In turn, `Cc1nn(C)c(OCC(=O)C(C)(C)C)c1C(=O)c1ccc(Cl)cc1Cl` came in with a melting point of 104 to 105 °C.
`Cc1cccc(N2CCCC2=O)c1CNc1cccn2c(C)c(C)nc12` displayed a melting point of 138 to 141 °C.
As to `CNC(=O)C1=CC2(CCSCC2)Oc2ccc([N+](=O)[O-])cc21`, the melting point was in the range of 208 to 209 °C.
Take `O=C(O)Cc1c[nH]c2cc(C(F)(F)F)nn2c1=O`: the melting point lay within 320 to 324 °C.
`O=c1[nH]c2cc([N+](=O)[O-])ccc2c(O)c1-c1ccccc1` came in with a melting point of over 330 °C.
The molecule `O=C1C=C(NC(=O)C(=O)c2cn(Cc3cccc(Cl)c3F)c3ccccc23)CO1` showed a melting point of 248 to 250 °C.
Consider `O=[N+]([O-])c1cc(Cl)c(Oc2cc(Cl)c(Cl)cc2Cl)cc1Oc1ccccc1`, for which the melting point stood at 84 °C.
The molecule `COc1cc(-n2c(OC)nc(C(F)(F)C(F)(F)F)cc2=O)c(F)cc1Cl` showed a melting point of 123 to 125 °C.
The molecule `O=C1C=C(c2ccc(Cl)cc2)C(=O)O1` returned a melting point of 144 to 145 °C.
The value for `OCc1ccc(-c2ccc(OC(F)(F)F)cc2)nc1` was 57 to 58 °C; that for `CCCCCc1cnc(-c2ccc(C#N)cc2)nc1` was 69.4 to 70.8 °C; that for `N#Cc1cc(C=NO)ccc1-n1cncn1` was 198 to 200 °C.
For `CC(C)(CC(O)(C(=O)O)C(F)(F)F)c1ccc(C(N)=O)cc1` (centres undefined) the value was 244 to 245 °C; for `COc1nc(C(F)(F)F)cc(=O)n1-c1cc(O)c(Cl)cc1F`, 147 to 149 °C; for `CCCOc1ccc(C(=O)O)c(OCc2ccc(OCCc3nc(-c4ccccc4)oc3C)cc2)c1`, 108 to 109 °C.
Regarding `COCOCC1(C)Cc2c(C)c(N3CCN(c4ccc(OC)cc4)CC3)c(C)c(C)c2O1` (centres undefined), the melting point was in the range of 111 to 114 °C.
Consider `COc1ccc(C(=NOCc2ccc(OCc3nc(-c4ccccc4)oc3C)cc2)C(=O)O)cc1`, for which the melting point lay in the range of 183 to 184 °C.
In the case of `COc1cc2c(cc1OC)CN(CC(=O)Nc1ccc([N+](=O)[O-])cc1)CC2`, the melting point lay in the range of 173 to 178 °C.
In turn, `N#CC(C#N)=CN(N=C(C#N)C#N)c1ccc(Cl)c(Cl)c1` showed a melting point of 162 to 164 °C.
With `CCC(C)NC1=NS(=O)(=O)c2sc(C)cc2N1` (centres undefined), the melting point lay in the range of 224 to 225 °C.
For `CCCCc1nc(SC)c(C(=O)OCC)n1Cc1cccc(-c2cccc(S(=O)(=O)NC#N)c2)c1` the value was 112 °C; for `N#CC(C#N)=C1N(CCCN2CCOCC2)CCN1C1CCN(C2CC2)CC1`, 104 to 106 °C.
For `COc1nc2cc([N+](=O)[O-])c(C)c(C(=O)Nc3ccc(C)cc3)c2nc1OC` the value was 214 to 215 °C.
In the case of `CCCCCc1noc(-c2ccc(OCCC3CCN(c4ccc(C)nn4)CC3)cc2)n1`, the melting point came to 111 °C.
For `CSC(C(=O)c1cc(-c2ccccc2)on1)N1CCOCC1` (centres undefined) the value was 124 to 126 °C; for `O=C1OC(O)c2c(F)cccc21` (centres undefined), 97 to 100 °C.
The molecule `CC(C)(c1ccc(OCCO)cc1)c1ccc(OCCO)cc1` showed a melting point of 110 to 111 °C.
`CN1C(=O)CC=C2c3ccc(Cl)cc3CCC21` (centres undefined) had a melting point of 99 °C.
`CN(C)Cc1ccc([C@H]2CC[C@H](OC(=O)c3ccc(Cl)cc3)CC2)cc1` displayed a melting point of 94 to 95 °C.
In turn, `Cc1nn(-c2ccccn2)c2nc3ccccc3c(N)c12` came in with a melting point of 210 to 213 °C.
For `Cc1cn(Cc2ccc(F)cc2)cc1C(=O)CC(=O)C(=O)O` the value was 162 to 163 °C.
Consider `CCCCCCC(=N)NC(=S)Nc1ccc(F)cc1`, for which the melting point was in the range of 75 to 76 °C.
`c1ccc(COc2cc(-c3ccccn3)nc(-c3cccc(-c4ccccc4)n3)c2)cc1` yielded a melting point of 182 °C.
Consider `CC(C)(C)C(O)(COc1ccccc1)c1cncnc1` (centres undefined), for which the melting point was in the range of 127 to 129 °C.
Take `CCC(=O)CCCCCCC(=O)c1ccc(OCc2ccccc2)c(OCc2ccccc2)c1`: the melting point fell in the range of 67 to 68 °C.
In turn, `CC(C)(Oc1ccc(OCc2nc(-c3ccc(C(F)(F)F)cc3)no2)cc1)C(=O)O` displayed a melting point of 164 °C.
With `N=C(NO)c1cc(Oc2ccc(Cl)cc2Cl)c(O)cc1Cl`, the melting point amounted to 137 °C.
For `CN1C(=O)CC[C@]2(C)c3ccc(Sc4nc5c(OC(F)(F)F)cccc5s4)cc3CC[C@@H]12`, the melting point lay within 168 to 173 °C.
